Source: ChEMBL document CHEMBL5543174, “A Nonbactericidal Anionic Antimicrobial Peptide Provides Prophylactic and Therapeutic Efficacies against Bacterial Infections in Mice by Immunomodulatory-Antithrombotic Duality” (J Med Chem, 2024)
Active and inactive are the calls of the source. The rule behind the calls is not given here.

Experiments:
Escherichia coli [1] = assay: Antimicrobial activity against Carbapenem-resistant Escherichia coli assessed as inhibition of microbial growth at <= 200 ug/ml incubated for 18 hrs by micro-broth dilution method; format: functional, organism-based; conditions: dose <= 200.0 µg/ml
Escherichia coli [2] = assay: Antibacterial activity against Escherichia coli ATCC 25922 infected in C57BL/6 mouse assessed as reduction in bacterial load at 10 mg/kg,ip pre-administrated 5 hrs before bacterial infection; format: functional, organism-based
Staphylococcus aureus [3] = assay: Antibacterial activity against Staphylococcus aureus ATCC 25923 infected in C57BL/6 mouse assessed as reduction in IL-1beta level in peritoneal fluid at 10 mg/kg,ip administrated 5 hrs after bacterial infection measured after 24 hrs by ELISA; format: functional, organism-based; conditions: time 19.0 hrs
Staphylococcus aureus [4] = assay: Antibacterial activity against Methicillin-resistant Staphylococcus aureus infected in C57BL/6 mouse assessed as reduction in IL-6 level in peritoneal fluid at 10 mg/kg,ip pre-administrated 5 hrs before bacterial infection measured after 24 hrs by ELISA; format: functional, organism-based; conditions: time 29.0 hrs
Escherichia coli [5] = assay: Antibacterial activity against Escherichia coli ATCC 25922 infected in C57BL/6 mouse assessed as reduction in TNF-alpha level in serum at 10 mg/kg,ip pre-administrated 5 hrs before bacterial infection measured after 24 hrs by ELISA; format: functional, organism-based; conditions: time 29.0 hrs
Escherichia coli [6] = assay: Antibacterial activity against Escherichia coli ATCC 25922 infected in C57BL/6 mouse assessed as reduction in IL-6 level in serum at 10 mg/kg,ip pre-administrated 5 hrs before bacterial infection measured after 24 hrs by ELISA; format: functional, organism-based; conditions: time 29.0 hrs
Staphylococcus aureus [7] = assay: Antibacterial activity against Methicillin-resistant Staphylococcus aureus infected in C57BL/6 mouse assessed as reduction in IL-1beta level in serum at 10 mg/kg,ip pre-administrated 5 hrs before bacterial infection measured after 24 hrs by ELISA; format: functional, organism-based; conditions: time 29.0 hrs
Mus musculus [8] = assay: Immunomodulatory activity in clodronate liposome immunosuppressed C57BL/6 mouse with neutrophil depletion model assessed as change in B-lymphocytes in peritoneal lavage at 10 mg/kg,ip administration measured after 5 to 24 hrs by flow cytometry; format: functional, organism-based; conditions: time 5-24 hrs
Peritoneal macrophage [9] = assay: Immunomodulatory activity in mouse Peritoneal macrophage assessed as decrease in LTA-induced TNF-alpha production at 25 to 100 ug/ml incubated for 6 hrs by ELISA; format: functional, cell-based; conditions: dose 25-100 µg/ml
Peritoneal macrophage [10] = assay: Induction of phagocytosis in mouse Peritoneal macrophage assessed as increase in neutral red dye uptake by measuring optical density absorbance at 25 ug/ml incubated for 24 hrs followed by dye addition measured after 4 hrs by absorbance based assay (reference value: 0.089); format: functional; conditions: dose 25 µg/ml; time 28 hrs
Neutrophil = assay: Induction of chemotaxis in mouse bone marrow derived neutrophil assessed as increase in neutrophil migration incubated for 8 hrs in presence of macrophage by crystal violet staining based indirect transwell assay; format: functional, cell-based
Peritoneal macrophage [11] = assay: Immunoregulatory activity in mouse Peritoneal macrophage assessed as change in total JNK expression at 25 to 100 ug/ml incubated for 1 hr by Western blotting analysis; format: functional, cell-based; conditions: dose 25-100 µg/ml
Mus musculus [12] = assay: Inhibition of fibrin formation in mouse infected with Methicillin-resistant Staphylococcus aureus assessed as reduction in fibrin deposition in lung at 10 mg/kg,ip pre-administrated 5 hrs before bacterial infection measured after 24 hrs by immunohistochemical analysis; format: functional, organism-based; conditions: time 29.0 hrs
Plasma = assay: Anticoagulation activity in human platelet poor plasma assessed as elongation of activated partial thromboplastin time at 100 ug/ml measured after 5 mins; format: functional, cell-free; conditions: dose 100.0 µg/ml
Mus musculus [13] = assay: Anticoagulation activity in mouse infected with Methicillin-resistant Staphylococcus aureus assessed as increase in plasma TFPI expression at 10 mg/kg,ip administrated 5 hrs after bacterial infection measured after 24 hrs by ELISA; format: functional, organism-based; conditions: time 19.0 hrs
Mus musculus [14] = assay: Anticoagulation activity in mouse infected with Methicillin-resistant Staphylococcus aureus assessed as increase in plasma AT-III expression at 10 mg/kg,ip administrated 5 hrs after bacterial infection measured after 24 hrs by ELISA; format: functional, organism-based; conditions: time 19.0 hrs

Q: Which results are given for CC[C@H](C)[C@H](NC(=O)[C@@H]1CSSC[C@H](NC(=O)[C@H](CCC(=O)O)NC(=O)[C@@H](NC(=O)[C@H](CCCCN)NC(=O)[C@H](Cc2c[nH]cn2)NC(=O)[C@@H](NC(=O)[C@H](CCCCN)NC(=O)[C@H](CCC(=O)O)NC(=O)[C@H](C)NC(=O)[C@H](CCC(=O)O)NC(=O)[C@H](CCC(=O)O)NC(=O)[C@H](CCC(=O)O)NC(=O)[C@H](C)N)[C@@H](C)O)[C@@H](C)O)C(=O)N[C@@H](CC(C)C)C(=O)N[C@@H](CCC(=O)O)C(=O)N1)C(=O)N[C@@H](Cc1ccccc1)C(=O)N[C@H](C(=O)N[C@@H](CC(C)C)C(=O)N[C@@H](CC(C)C)C(=O)N1CCC[C@H]1C(=O)N1CCC[C@@H]1C(=O)N[C@H](C)C(=O)O)[C@@H](C)O?
A: Activity (Escherichia coli [1]): inactive; Activity (Escherichia coli [2]): Active; Activity (Staphylococcus aureus [3]): Active; Activity (Staphylococcus aureus [4]): Active; Activity (Escherichia coli [5]): Active; Activity (Escherichia coli [6]): Active; Activity (Staphylococcus aureus [7]): Active; Activity (Mus musculus [8]): inactive; Activity (Peritoneal macrophage [9]): inactive; OD (Peritoneal macrophage [10]): 0.097; Activity (Neutrophil): Dose-Dependent Effect; Activity (Peritoneal macrophage [11]): inactive; inhibition (Mus musculus [12]): Active; Activity (Plasma): inactive; Activity (Mus musculus [13]): Active; Activity (Mus musculus [14]): Active
